# Measurements taken from patent publication US9795551B2, “Tetrapeptides and a method of use as an antioxidant” (L'OREAL, priority 2014, dated 2017).
# Tests used:
# [1] = HORAC hydroxyl radical absorbance capacity (USTM 190), in tubo
# Procedure: (§1) In the screening standard testing for oxygen radical absorbance capacity (ORAC) and hydroxyl radical absorbance capacity (HORAC) were conducted with the test polypeptides. Testing was conducted according to USTM 190 (HORAC) and USTM 192 (ORAC).
# (§2) The peptides were tested in tubo for their antioxidant properties and tested against reference/known antioxidants. The evaluation of the antioxidant properties were conducted by determination of the ORAC (USTM 192) and HORAC (USTM 190) test methods. The results are listed in Table I for the peptides of the invention and for the conventionally known antioxidants vitamin C and Carnosine.
# [2] = ORAC oxygen radical absorbance capacity (USTM 192), in tubo
# Procedure: as §1, §2
compound,measurement,setting,value
"NCCC(=O)N[C@@H](Cc1c[nH]cn1)C(=O)O [Carnosine, β-alanyl-histidine, reference compound]",HORAC/hydroxyl,[1],2099 μmol GAE/g
same,ORAC/peroxyl,[2],354 μmol GAE/g
"O=C1O[C@H]([C@@H](O)CO)C(O)=C1O [Vitamin C, reference compound]",HORAC/hydroxyl,[1],0 μmol GAE/g
same,ORAC/peroxyl,[2],4456 μmol GAE/g
Ac-wRyR-NH2 [RED27],HORAC/hydroxyl,[1],735 μmol GAE/g
same,ORAC/peroxyl,[2],5342 μmol GAE/g
RwRyR-NH2 [RED26],HORAC/hydroxyl,[1],No capacity
same,ORAC/peroxyl,[2],4461 μmol GAE/g
RyR-NH2 [RED32],HORAC/hydroxyl,[1],230 μmol GAE/g
same,ORAC/peroxyl,[2],3385 μmol GAE/g
WKYK-NH2 [RED25],HORAC/hydroxyl,[1],2476 μmol GAE/g
same,ORAC/peroxyl,[2],4168 μmol GAE/g
WRYR [RED23],HORAC/hydroxyl,[1],2089 μmol GAE/g
same,ORAC/peroxyl,[2],4091 μmol GAE/g
WRYR-NH2 [RED6],HORAC/hydroxyl,[1],1548 μmol GAE/g
same,ORAC/peroxyl,[2],4488 μmol GAE/g
WRYr-NH2 [RED19],HORAC/hydroxyl,[1],1457 μmol GAE/g
same,ORAC/peroxyl,[2],4350 μmol GAE/g
WRyR-NH2 [RED21],HORAC/hydroxyl,[1],2472 μmol GAE/g
same,ORAC/peroxyl,[2],4816 μmol GAE/g
WrYR-NH2 [RED20],HORAC/hydroxyl,[1],1666 μmol GAE/g
same,ORAC/peroxyl,[2],4448 μmol GAE/g
WrYr-NH2 [RED18],HORAC/hydroxyl,[1],2982 μmol GAE/g
same,ORAC/peroxyl,[2],4758 μmol GAE/g
wRYR-NH2 [RED24],HORAC/hydroxyl,[1],2225 μmol GAE/g
same,ORAC/peroxyl,[2],4077 μmol GAE/g
wRwR-NH2 [RED31],HORAC/hydroxyl,[1],1189 μmol GAE/g
same,ORAC/peroxyl,[2],4652 μmol GAE/g
wRyR-NH2 [RED22],HORAC/hydroxyl,[1],1686 μmol GAE/g
same,ORAC/peroxyl,[2],5383 μmol GAE/g
wRyRw-NH2 [RED29],HORAC/hydroxyl,[1],No capacity
same,ORAC/peroxyl,[2],5512 μmol GAE/g
wRyRy-NH2 [RED28],HORAC/hydroxyl,[1],No capacity
same,ORAC/peroxyl,[2],5216 μmol GAE/g
